# In patent US11318190B2, “Methods and compositions for treating liver disease” (UNITED STATES GOVERNMENT AS REPRESENTED BY THE DEPARTMENT …, priority 2017, dated 2022):
# Tests used:
# [1] = test system: human hepatic stellate cells (hHSC); test: hHSC activation by cholangiocyte supernatants from treated mice (qPCR); type: cell-based
# Protocol: In vitro experiments were performed in human hepatic stellate cells (hHSC) that were purchased from ScienCell Research Laboratories (Carlsbad, Calif.) that were maintained in standard conditions.
# […] Activation of hHSCs was determined by qPCR for FN-1, TGF-β1, α-SMA, and collagen type-1a (Kennedy, L L et al., Knockout of microRNA-21 reduces biliary hyperplasia and liver fibrosis in cholestatic bile duct ligated mice, Lab Invest 96:1256-1267 (2016)).
# WT mice = WT mice treated 1 wk with secretin: TGF-β1, fibrosis, cellular senescence; type: in vivo, mouse
# Protocol: WT mice were treated for 1 wk with saline or secretin (Sct; 2.5 nmoles/kg body weight per day) before collecting cholangiocytes, HSCs and cholangiocyte supernatants. The levels of TGF-β1 were measured in short-term (6-hour) cultures of cholangiocytes by ELISA kits. Subsequently, we measured: (i) liver fibrosis by immunofluorescence for Col1a1 in liver sections and real-time PCR for TGF-β1, TFG-β1R, Col1a1, α-SMA and Fn1 in cholangiocytes and HSCs; and (ii) cellular senescence by immunofluorescence in liver sections for p16 and real-time PCR for p16 and p21 in cholangiocytes and HSC.
substance,measurement,setting,value
secretin [Sct],"expression of FN-1, TGF-β1, α-SMA and collagen type-1a in hHSCs",[1]; cholangiocyte supernatants from treated dnTGF-βRII mice 12 wks,further enhanced
same,"expression of FN-1, TGF-β1, α-SMA and collagen type-1a in hHSCs",[1]; cholangiocyte supernatants from treated dnTGF-βRII mice 34 wks,reduced
same,TGF-β1 levels in cholangiocyte supernatant,WT mice; secretin 2.5 nmoles/kg/day 1 wk vs saline,enhanced levels
same,"biliary immunoreactivity of Collagen I and mRNA of TGF-β1, TFG-β1R, Col1a1, α-SMA, Fn1 in cholangiocytes and HSCs",WT mice; secretin 1 wk,increased
same,"p16 immunoreactivity in liver sections, p16 and p21 expression in cholangiocytes",WT mice; secretin 1 wk,enhanced
same,p16 and p21 mRNA expression in isolated HSCs,WT mice; secretin 1 wk vs saline,reduced
